biological target: T1, human PDE4B1 (Homo sapiens, UniProt Q07343); test: cAMP HTRF assay to determine the activity of hPDE4B1; assay type: biochemical; conditions: inhibition of PDE4B at a test concentration of 1 μM
T1 construct: host or cells: Sf9 cells
Protocol: Biological Testing cAMP HTRF® Assay to Determine the Activity of hPDE4B1
The inhibiting effect of the compounds on the enzyme activity of human PDE4B1 was measured by the quantification of 5′-adenosine monophosphate (5′-AMP), which is formed from 3′,5′-cyclic adenosine monophosphate (cAMP). Human recombinant enzyme, expressed in Sf9 cells, and the HTRF (homogeneous time-resolved fluorescence) detection method were used in the assay.
The test compound or water (control) was mixed with the human recombinant PDE4B1 enzyme (4.8 U) in a buffer consisting of 44.4 mM tris-HCl, 5.28 mM MgCl2, 2.64 mM DTT and 0.044% Tween 20 (pH 7.8). After adding the cAMP enzyme substrate (final concentration 40 nM), the mixture was incubated for 30 minutes at room temperature. Then a fluorescence acceptor (Dye2 marked with cAMP), a fluorescence donor (anti-cAMP antibody marked with a europium cryptate) and the non-specific phosphodiesterase inhibitor IBMX (3-isobutyl-1-methylxanthine; final concentration 1 mM) were added. After 60 minutes the fluorescence transfer, which correlates with the amount of remaining cAMP, was measured with a microplate reader (Rubystar, BMG) at λex=337 nm, λem=620 nm and λem=665 nm. The enzyme activity was calculated from the quotient formed from the measured signal at 665 nm and that at 620 nm. The result was expressed as the percentage inhibition of enzyme activity of the control (without PDE4 inhibitor). The enzyme was omitted for measurement of the basal control. IC50 values (IC50=concentration causing a half-maximal inhibition of control specific activity) were derived from dose response measurements with eight different concentrations (n=2; N=1-3).
Literature: N. Saldou et al., Comparison of recombinant human PDE4 isoforms: interaction with substrate and inhibitors, Cell. Signal. Vol. 10, No. 6, 427-440, 1998

T1 sequence (Q07343 whole entry): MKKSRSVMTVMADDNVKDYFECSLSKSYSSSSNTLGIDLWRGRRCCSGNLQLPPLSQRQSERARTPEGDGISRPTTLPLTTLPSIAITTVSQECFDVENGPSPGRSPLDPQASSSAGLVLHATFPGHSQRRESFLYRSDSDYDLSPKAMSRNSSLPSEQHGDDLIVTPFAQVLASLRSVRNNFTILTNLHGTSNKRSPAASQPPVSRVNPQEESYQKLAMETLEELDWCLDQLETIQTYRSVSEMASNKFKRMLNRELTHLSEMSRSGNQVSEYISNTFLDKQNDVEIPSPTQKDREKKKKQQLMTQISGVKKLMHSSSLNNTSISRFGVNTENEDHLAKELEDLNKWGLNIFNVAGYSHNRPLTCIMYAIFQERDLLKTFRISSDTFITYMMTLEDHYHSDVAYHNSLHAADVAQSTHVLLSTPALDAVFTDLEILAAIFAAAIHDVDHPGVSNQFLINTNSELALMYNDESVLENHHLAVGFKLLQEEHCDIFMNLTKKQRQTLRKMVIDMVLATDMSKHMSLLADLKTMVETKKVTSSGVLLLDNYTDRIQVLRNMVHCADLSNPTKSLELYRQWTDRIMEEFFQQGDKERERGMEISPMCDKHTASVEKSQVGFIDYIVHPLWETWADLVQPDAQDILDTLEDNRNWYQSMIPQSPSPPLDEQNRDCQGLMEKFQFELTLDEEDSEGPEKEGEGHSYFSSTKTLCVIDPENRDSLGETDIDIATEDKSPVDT

| SMILES | inhibition at 1 µM |
| --- | --- |
| CS(=O)(=O)c1cn(-c2ncc(-c3ccccc3)cn2)c2cc(C(=O)N3CCNCC3)ccc12 [Example 21, (3-(Methylsulfonyl)-1-(5-phenylpyrimidin-2-yl)-1H-indol-6-yl)(piperazin-1-yl)methanone] | 32% |
| CC(O)c1cn(-c2ncc(-c3ccccc3F)cn2)c2cc(C(=O)N3CCOCC3)ccc12 (stereo not drawn) [Example 28, (1-(5-(2-fluorophenyl)pyrimidin-2-yl)-3-(1-hydroxyethyl)-1H-indol-6-yl)(morpholino)methanone] | 98% |
| C[S+]([O-])c1cn(-c2ncc(-c3cccc(F)c3F)cn2)c2cc(C(=O)N3CCOCC3)ccc12 (stereo not drawn) [Example 30, (1-(5-(2,3-Difluorophenyl)pyrimidin-2-yl)-3-(methylsulfinyl)-1H-indol-6-yl)(morpholino)methanone] | 106% |
| C[S+]([O-])c1cn(-c2ncc(-c3ccc(C#N)cc3)cn2)c2cc(C(=O)N3CCOCC3)ccc12 (stereo not drawn) [Example 31, 4-(2-(3-(Methylsulfinyl)-6-(morpholine-4-carbonyl)-1H-indol-1-yl)pyrimidin-5-yl)benzonitrile] | 75% |
| C[S+]([O-])c1cn(-c2ncc(-c3ccc(F)cc3)cn2)c2cc(C(=O)N3CCOCC3)ccc12 (stereo not drawn) [Example 32, (1-(5-(4-Fluorophenyl)pyrimidin-2-yl)-3-(methylsulfinyl)-1H-indol-6-yl)(morpholino)methanone] | 80% |
| COc1ccc(-c2cnc(-n3cc([S+](C)[O-])c4ccc(C(=O)N5CCOCC5)cc43)nc2)cc1 (stereo not drawn) [Example 33, (1-(5-(4-Methoxyphenyl)pyrimidin-2-yl)-3-(methylsulfinyl)-1H-indol-6-yl)(morpholino)methanone] | 88% |
| C[S+]([O-])c1cn(-c2ncc(-c3cccc(F)c3)cn2)c2cc(C(=O)N3CCOCC3)ccc12 (stereo not drawn) [Example 34, (1-(5-(3-Fluorophenyl)pyrimidin-2-yl)-3-(methylsulfinyl)-1H-indol-6-yl)(morpholino)methanone] | 90% |
| C[S+]([O-])c1cn(-c2ncc(-c3cccc(C(N)=O)c3)cn2)c2cc(C(=O)N3CCOCC3)ccc12 (stereo not drawn) [Example 35, 3-(2-(3-(Methylsulfinyl)-6-(morpholine-4-carbonyl)-1H-indol-1-yl)pyrimidin-5-yl)benzamide] | 67% |
| C[S+]([O-])c1cn(-c2ncc(-c3cccc(S(C)(=O)=O)c3)cn2)c2cc(C(=O)N3CCOCC3)ccc12 (stereo not drawn) [Example 36, (3-(Methylsulfinyl)-1-(5-(3-(methylsulfonyl)phenyl)pyrimidin-2-yl)-1H-indol-6-yl)(morpholino)methanone] | 90% |
| Cc1cccc(-c2cnc(-n3cc([S+](C)[O-])c4ccc(C(=O)N5CCOCC5)cc43)nc2)c1 (stereo not drawn) [Example 37, (3-(Methylsulfinyl)-1-(5-(m-tolyl)pyrimidin-2-yl)-1H-indol-6-yl)(morpholino)methanone] | 103% |
| COc1ccc(F)c(-c2cnc(-n3cc([S+](C)[O-])c4ccc(C(=O)N5CCOCC5)cc43)nc2)c1 (stereo not drawn) [Example 38, (1-(5-(2-Fluoro-5-methoxyphenyl)pyrimidin-2-yl)-3-(methylsulfinyl)-1H-indol-6-yl)(morpholino)methanone] | 102% |
| COc1ccc(-c2cnc(-n3cc([S+](C)[O-])c4ccc(C(=O)N5CCOCC5)cc43)nc2)c(F)c1 (stereo not drawn) [Example 39, (1-(5-(2-Fluoro-4-methoxyphenyl)pyrimidin-2-yl)-3-(methylsulfinyl)-1H-indol-6-yl)(morpholino)methanone] | 105% |
| C[S+]([O-])c1cn(-c2ncc(-c3cccc(C#N)c3)cn2)c2cc(C(=O)N3CCOCC3)ccc12 (stereo not drawn) [Example 40, 3-(2-(3-(Methylsulfinyl)-6-(morpholine-4-carbonyl)-1H-indol-1-yl)pyrimidin-5-yl)benzonitrile] | 93% |
| C[S+]([O-])c1cn(-c2ncc(-c3cc(O)ccc3F)cn2)c2cc(C(=O)N3CCOCC3)ccc12 (stereo not drawn) [Example 41, (1-(5-(2-Fluoro-5-hydroxyphenyl)pyrimidin-2-yl)-3-(methylsulfinyl)-1H-indol-6-yl)(morpholino)methanone] | 100% |
| C[S+]([O-])c1cn(-c2ncc(-c3ccc(C(N)=O)cc3)cn2)c2cc(C(=O)N3CCOCC3)ccc12 (stereo not drawn) [Example 42, 4-(2-(3-(Methylsulfinyl)-6-(morpholine-4-carbonyl)-1H-indol-1-yl)pyrimidin-5-yl)benzamide] | 86% |
| C[S+]([O-])c1cn(-c2ncc(-c3cc(C(N)=O)ccc3F)cn2)c2cc(C(=O)N3CCOCC3)ccc12 (stereo not drawn) [Example 43, 4-Fluoro-3-(2-(3-(methylsulfinyl)-6-(morpholine-4-carbonyl)-1H-indol-1-yl)pyrimidin-5-yl)benzamide] | 83% |
| C[S+]([O-])c1cn(-c2ncc(-c3c(F)cccc3F)cn2)c2cc(C(=O)N3CCOCC3)ccc12 (stereo not drawn) [Example 44, (1-(5-(2,6-Difluorophenyl)pyrimidin-2-yl)-3-(methylsulfinyl)-1H-indol-6-yl)(morpholino)methanone] | 82% |
| COc1cccc(-c2cnc(-n3cc([S+](C)[O-])c4ccc(C(=O)N5CCOCC5)cc43)nc2)c1 (stereo not drawn) [Example 45, (1-(5-(3-Methoxyphenyl)pyrimidin-2-yl)-3-(methylsulfinyl)-1H-indol-6-yl)(morpholino)methanone] | 115% |
| Cc1ccc(-c2cnc(-n3cc([S+](C)[O-])c4ccc(C(=O)N5CCOCC5)cc43)nc2)cc1 (stereo not drawn) [Example 46, (3-(Methylsulfinyl)-1-(5-(p-tolyl)pyrimidin-2-yl)-1H-indol-6-yl)(morpholino)methanone] | 102% |
| C[S+]([O-])c1cn(-c2ncc(-c3ccncc3)cn2)c2cc(C(=O)N3CCOCC3)ccc12 (stereo not drawn) [Example 47, (3-(Methylsulfinyl)-1-(5-(pyridin-4-yl)pyrimidin-2-yl)-1H-indol-6-yl)(morpholino)methanone] | 61% |
| C[S+]([O-])c1cn(-c2ncc(-c3cccnc3F)cn2)c2cc(C(=O)N3CCOCC3)ccc12 (stereo not drawn) [Example 48, (1-(5-(2-Fluoropyridin-3-yl)pyrimidin-2-yl)-3-(methylsulfinyl)-1H-indol-6-yl)(morpholino)methanone] | 63% |
| C[S+]([O-])c1cn(-c2ncc(-c3cccnc3)cn2)c2cc(C(=O)N3CCOCC3)ccc12 (stereo not drawn) [Example 49, (3-(Methylsulfinyl)-1-(5-(pyridin-3-yl)pyrimidin-2-yl)-1H-indol-6-yl)(morpholino)methanone] | 72% |
| C[S+]([O-])c1cn(-c2ncc(-c3ccccn3)cn2)c2cc(C(=O)N3CCOCC3)ccc12 (stereo not drawn) [Example 50, (3-(Methylsulfinyl)-1-(5-(pyridin-2-yl)pyrimidin-2-yl)-1H-indol-6-yl)(morpholino)methanone] | 91% |
| C[S+]([O-])c1cn(-c2ncc(-c3ccccc3F)cn2)c2cc(C(=O)N3CCCC3)ccc12 (stereo not drawn) [Example 51, (1-(5-(2-Fluorophenyl)pyrimidin-2-yl)-3-(methylsulfinyl)-1H-indol-6-yl)(pyrrolidin-1-yl)methanone] | 86% |
| CN(C)C(=O)c1ccc2c([S+](C)[O-])cn(-c3ncc(-c4ccccc4F)cn3)c2c1 (stereo not drawn) [Example 52, 1-(5-(2-Fluorophenyl)pyrimidin-2-yl)-N,N-dimethyl-3-(methylsulfinyl)-1H-indole-6-carboxamide] | 91% |
| CN(C(=O)c1ccc2c([S+](C)[O-])cn(-c3ncc(-c4ccccc4F)cn3)c2c1)C1CCOC1 (stereo not drawn) [Example 54, 1-(5-(2-Fluorophenyl)pyrimidin-2-yl)-N-methyl-3-(methylsulfinyl)-N-(tetrahydrofuran-3-yl)-1H-indole-6-carboxamide] | 46% |
| C[S+]([O-])c1cn(-c2ncc(-c3ccccc3F)cn2)c2cc(C(=O)N3CCCNCC3)ccc12 (stereo not drawn) [Example 55, (1,4-Diazepan-1-yl)(1-(5-(2-fluorophenyl)pyrimidin-2-yl)-3-(methylsulfinyl)-1H-indol-6-yl)methanone] | 40% |
| C[S+]([O-])c1cn(-c2ncc(-c3ccccc3F)cn2)c2cc(C(=O)N3CCNC(=O)C3)ccc12 (stereo not drawn) [Example 56, 4-(1-(5-(2-Fluorophenyl)pyrimidin-2-yl)-3-(methylsulfinyl)-1H-indole-6-carbonyl)piperazin-2-one] | 86% |
| CN(C(=O)c1ccc2c([S+](C)[O-])cn(-c3ncc(-c4ccccc4F)cn3)c2c1)C1CCNC1 (stereo not drawn) [Example 58, 1-(5-(2-Fluorophenyl)pyrimidin-2-yl)-N-methyl-3-(methylsulfinyl)-N-(pyrrolidin-3-yl)-1H-indole-6-carboxamide] | 90% |
| C[S+]([O-])c1cn(-c2ncc(-c3ccccc3F)cn2)c2cc(C(=O)N3CCCOCC3)ccc12 (stereo not drawn) [Example 60, (1-(5-(2-Fluorophenyl)pyrimidin-2-yl)-3-(methylsulfinyl)-1H-indol-6-yl)(1,4-oxoazepan-4-yl)methanone] | 79% |
